Source: patent US9856279B2 (AGIOS PHARMACEUTICALS, INC, priority 2011, dated 2018)
Where two headings read alike, the source gives them in different places.

Target: IDH1 R132H (Homo sapiens, UniProt O75874, R132H)
Test: Assay for IDH1 R132H inhibitors (NADPH/aKG, resazurin detection)
Type: biochemical
Experimental: Assays were conducted in a volume of 76 μl assay buffer (150 mM NaCl, 10 mM MgCl2, 20 mM Tris pH 7.5, 0.03% bovine serum albumin) as follows in a standard 384-well plate: To 25 ul of substrate mix (8 uM NADPH, 2 mM aKG), 1 μl of test compound was added in DMSO. The plate was centrifuged briefly, and then 25 μl of enzyme mix was added (0.2 μg/ml IDH1 R132H) followed by a brief centrifugation and shake at 100 RPM. The reaction was incubated for 50 minutes at room temperature, then 25 μl of detection mix (30 μM resazurin, […]) was added and the mixture further incubated for 5 minutes at room temperature. The conversion of resazurin to resorufin was detected by fluorescent spectroscopy at Ex544 Em590 c/o 590.

[1] = enzyme assay of Example 12, read-out: IDH1R132H IC50
[2] = Table 3, enzyme assay, 50 minutes at room temperature, read-out: IC50 (IDH1 R132H Inhibition)

IDH1 R132H, sequence (O75874 whole entry R132H): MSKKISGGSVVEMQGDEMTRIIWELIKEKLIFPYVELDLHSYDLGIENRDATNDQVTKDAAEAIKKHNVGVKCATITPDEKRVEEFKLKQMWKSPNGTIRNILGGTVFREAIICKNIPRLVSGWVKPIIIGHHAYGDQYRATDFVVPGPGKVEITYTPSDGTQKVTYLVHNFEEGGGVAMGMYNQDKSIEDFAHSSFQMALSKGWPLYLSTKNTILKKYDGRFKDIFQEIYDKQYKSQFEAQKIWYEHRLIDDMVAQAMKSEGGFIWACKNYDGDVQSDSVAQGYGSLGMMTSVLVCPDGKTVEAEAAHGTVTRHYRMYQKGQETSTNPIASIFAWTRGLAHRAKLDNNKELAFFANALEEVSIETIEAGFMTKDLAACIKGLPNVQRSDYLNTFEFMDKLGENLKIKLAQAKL

| IC50 [1] | IC50 [2] | SMILES |
| --- | --- | --- |
| < 500 nM |  | C=CS(=O)(=O)N(c1cccc(-c2cc(C#N)c(N3CCN(C(=O)CCOC)[C@H](C)C3)nc2C2CC2)c1)S(=O)(=O)C=C [Compound 440, (R)—N-(3-(5-cyano-2-cyclopropyl-6-(4-(3-methoxypropanoyl)-3-methylpiperazin-1-yl)pyridin-3-yl)phenyl)-N-(vinylsulfonyl)ethenesulfonamide] |
|  | 1000 to 5000 nM | CC(C)c1cc(-c2cccc(F)c2)c(C#N)c(N2CCN(C(=O)c3ccoc3)[C@H](C)C2)n1 [Compound 156] |
|  | 5000 to 15000 nM | CC(C)c1cc(-c2cccc(F)c2)c(C#N)c(N2CC(C)N(C(=O)c3ccco3)C(C)C2)n1 (stereo not shown) [Compound 136, 4-(3-fluorophenyl)-2-(4-(furan-2-carbonyl)-3,5-dimethylpiperazin-1-yl)-6-isopropylnicotinonitrile] |
|  | 1000 to 5000 nM | COCCC(=O)N1CCN(c2nc(C(C)C)c(-c3cccc(OC(F)(F)F)c3)cc2C#N)C[C@H]1C [Compound 230, (R)-6-isopropyl-2-(4-(3-methoxypropanoyl)-3-methylpiperazin-1-yl)-5-(3-(trifluoromethoxy)phenyl)nicotinonitrile] |
| 500 to 1000 nM |  | COCCC(=O)N1CCN(c2nc(C3CC3)c(Nc3cnc4ccccc4c3)cc2C#N)C[C@H]1C [Compound 339, (R)-6-cyclopropyl-2-(4-(3-methoxypropanoyl)-3-methylpiperazin-1-yl)-5-(quinolin-3-ylamino)nicotinonitrile] |
| 500 to 1000 nM |  | N#Cc1cc(-c2cccc3cnccc23)c(C2CC2)nc1N1CCN(C(=O)CC(F)(F)F)C(C(F)(F)F)C1 (stereo not shown) [Compound 399, 6-cyclopropyl-5-(isoquinolin-5-yl)-2-(3-(trifluoromethyl)-4-(3,3,3-trifluoropropanoyl)piperazin-1-yl)nicotinonitrile] |
| < 500 nM |  | C=Cc1cc(-c2c(C3CC3)nc(N3CCN(C(=O)C=C4CCC4)[C@H](C4CC4)C3)c(C#N)c2C)ccn1 [Compound 820, (R)-6-(4-(2-cyclobutylideneacetyl)-3-cyclopropylpiperazin-1-yl)-2-cyclopropyl-4-methyl-2′-vinyl-3,4′-bipyridine-5-carbonitrile] |
|  | 5000 to 15000 nM | CC(C)c1cc(-c2ccccc2)c(C#N)c(N2CCN(C(=O)c3ccccc3)CC2)n1 [Compound 100, 2-(4-benzoylpiperazin-1-yl)-6-isopropyl-4-phenylnicotinonitrile] |
| 500 to 1000 nM |  | COCCC(=O)N1CCN(c2nc(C3CC3)c(OCc3ccc(OC)cc3)cc2C#N)C[C@H]1C [Compound 281, (R)-6-cyclopropyl-5-(4-methoxybenzyloxy)-2-(4-(3-methoxypropanoyl)-3-methylpiperazin-1-yl)nicotinonitrile] |
| 500 to 1000 nM |  | N#Cc1cc(-c2cnn(CCO)c2)c(C2CC2)nc1N1CCN(C(=O)C2CC2)[C@H](C2CC2)C1 [Compound 490, (R)-2-(4-(cyclopropanecarbonyl)-3-cyclopropylpiperazin-1-yl)-6-cyclopropyl-5-(1-(2-hydroxyethyl)-1H-pyrazol-4-yl)nicotinonitrile] |
| 500 to 1000 nM |  | N#Cc1cc(-c2cccc3cnccc23)c(C2CC2)nc1N1CCN(C(=O)CCC=O)[C@H](C2CC2)C1 [Compound 519, (R)-6-cyclopropyl-2-(3-cyclopropyl-4-(4-oxobutanoyl)piperazin-1-yl)-5-(isoquinolin-5-yl)nicotinonitrile] |
|  | 1000 to 5000 nM | CC(C)c1nc(N2CCN(C(=O)c3ccoc3)[C@H](C(C)C)C2)c(C#N)cc1-c1ccccc1 [Compound 170, (R)-2-(4-(furan-3-carbonyl)-3-isopropylpiperazin-1-yl)-6-isopropyl-5-phenylnicotinonitrile] |
|  | 1000 to 5000 nM | COCCC(=O)N1CCN(c2nc(C3CC3)c(Cc3ccccc3)c(C)c2C#N)C[C@H]1C [Compound 245, (R)-5-benzyl-6-cyclopropyl-2-(4-(3-methoxypropanoyl)-3-methylpiperazin-1-yl)-4-methylnicotinonitrile] |
|  | 1000 to 5000 nM | Cc1ccc(-c2cc(C#N)c(N3CCN(C(=O)c4ccoc4)[C@H](C)C3)nc2C(C)C)cc1 [Compound 179, (R)-2-(4-(furan-3-carbonyl)-3-methylpiperazin-1-yl)-6-isopropyl-5-p-tolylnicotinonitrile] |
| 500 to 1000 nM |  | COCCC(=O)N1CCN(c2nc(C3CC3)c(N3CCN(C(C)=O)CC3)cc2C#N)C[C@H]1C [Compound 368, (R)-5-(4-acetylpiperazin-1-yl)-6-cyclopropyl-2-(4-(3-methoxypropanoyl)-3-methylpiperazin-1-yl)nicotinonitrile] |
|  | 5000 to 15000 nM | CC(C)c1cc(-c2ccccc2)c(C#N)c(N2CCN(C(=O)c3ccoc3)CC2c2ccccc2)n1 (stereo not shown) [Compound 160, 2-(4-(furan-3-carbonyl)-2-phenylpiperazin-1-yl)-6-isopropyl-4-phenylnicotinonitrile] |
|  | 1000 to 5000 nM | COCCC(=O)N1CCN(c2nc(C(C)C)c(-c3ccccc3OC)cc2C#N)C[C@H]1C [Compound 183, (R)-6-isopropyl-5-(2-methoxyphenyl)-2-(4-(3-methoxypropanoyl)-3-methylpiperazin-1-yl)nicotinonitrile] |
| < 500 nM |  | N#Cc1cc(-c2cnnc(O)c2)c(C2CC2)nc1N1CCN(C(=O)CCO)[C@H](C2CC2)C1 [Compound 671, (R)-6-cyclopropyl-2-(3-cyclopropyl-4-(3-hydroxypropanoyl)piperazin-1-yl)-5-(6-hydroxypyridazin-4-yl)nicotinonitrile] |
| 500 to 1000 nM |  | COCCC(=O)N1CCN(c2nc(C3CC3)c(-c3cc4ccccc4[nH]3)cc2C#N)C[C@H]1C [Compound 394, (R)-6-cyclopropyl-5-(1H-indol-2-yl)-2-[4-(3-methoxy-propionyl)-3-methyl-piperazin-1-yl]-nicotinonitrile] |
|  | ≤ 1000 nM | COCCC(=O)N1CCN(c2nc(C3CC3)c(-c3cccc(F)c3)cc2C#N)C[C@H]1C [Compound 229, (R)-6-cyclopropyl-5-(3-fluorophenyl)-2-(4-(3-methoxypropanoyl)-3-methylpiperazin-1-yl)nicotinonitrile] |
| 500 to 1000 nM |  | N#Cc1cc(-c2ccc3c(c2)C(=O)C(=O)N3)c(C2CC2)nc1N1CCN(C(=O)C2CC2)[C@H](C2CC2)C1 [Compound 504, (R)-2-(4-(cyclopropanecarbonyl)-3-cyclopropylpiperazin-1-yl)-6-cyclopropyl-5-(2,3-dioxoindolin-5-yl)nicotinonitrile] |
|  | 1000 to 5000 nM | CC(C)c1nc(N2CCN(C(=O)Cc3ccccc3)[C@H](C)C2)c(C#N)cc1-c1ccccc1 [Compound 143, (R)-6-isopropyl-2-(3-methyl-4-(2-phenylacetyl)piperazin-1-yl)-5-phenylnicotinonitrile] |
| < 500 nM |  | CCc1ccccc1-c1c(C2CC2)nc(N2CCN(C(=O)CCOC)[C@H](C)C2)c(C#N)c1C [Compound 359, (R)-6-cyclopropyl-5-(2-ethyl-phenyl)-2-[4-(3-methoxy-propionyl)-3-methyl-piperazin-1-yl]-4-methyl-nicotinonitrile] |
| 500 to 1000 nM |  | COCCC(=O)N1CCN(c2nc(C3CC3)c(-c3ccc4nnnn4c3)cc2C#N)C[C@H]1C [Compound 370, (R)-6-cyclopropyl-2-[4-(3-methoxy-propionyl)-3-methyl-piperazin-1-yl]-5-tetrazolo[1,5-a]pyridin-6-yl-nicotinonitrile] |
| 500 to 1000 nM |  | COCCC(=O)N1CCN(c2nc(C3CC3)c(-c3cccc(C(=O)N4CCCC4)c3)c(C)c2C#N)C[C@H]1C [Compound 332, (R)-6-cyclopropyl-2-[4-(3-methoxy-propionyl)-3-methyl-piperazin-1-yl]-4-methyl-5-[3-(pyrrolidine-1-carbonyl)-phenyl]-nicotinonitrile] |
